Reference: patent publication US9963464B2, “Macrocyclic compounds” (Bayer Pharma Aktiengesellschaft, priority 2014, dated 2018)

Assays:
Caco-2 permeation assay = type: in vitro ADME; conditions: human, pH 7.2, Caco-2 monolayer, 2 μM test compound; for Papp A→B at 2 h, 2 μM: read-out: Papp A-B (Mari); for Papp B→A at 2 h, 2 μM: read-out: Papp B-A (Mari); for efflux ratio at 2 h, 2 μM: read-out: Efflux ratio (Papp B-A/Papp A-B)
Procedure: 5. Caco-2 Permeation Assay:
Caco-2 cells (purchased from DSMZ Braunschweig, Germany) were seeded at a density of 4.5×10^4 cells per well on 24 well insert plates, 0.4 μm pore size, and grown for 15 days in DMEM medium supplemented with 10% fetal bovine serum, 1% GlutaMAX (100×, GIBCO), 100 U/mL penicillin, 100 μg/mL streptomycin (GIBCO) and 1% non essential amino acids (100×). Cells were maintained at 37° C. in a humidified 5% CO2 atmosphere. Medium was changed every 2-3 day. Before running the permeation assay, the culture medium was replaced by a FCS-free hepes-carbonate transport buffer (pH 7.2). For assessment of monolayer integrity the transepithelial electrical resistance (TEER) was measured. Test compounds were predissolved in DMSO and added either to the apical or basolateral compartment in final concentration of 2 μM in transport buffer. Before and after 2 h incubation at 37° C. samples were taken from both compartments. Analysis of compound content was done after precipitation with methanol by LC/MS/MS analysis. Permeability (Papp) was calculated in the apical to basolateral (A→B) and basolateral to apical (B→A) directions. The apparent permeability was calculated using following equation: Papp=(Vr/Po)(1/S)(P2/t) Where Vr is the volume of medium in the receiver chamber, Po is the measured peak area or height of the test drug in the donor chamber at t=o, S the surface area of the monolayer, P2 is the measured peak area of the test drug in the acceptor chamber after 2 h of incubation, and t is the incubation time. The efflux ratio basolateral (B) to apical (A) was calculated by dividing the Papp B-A by the Papp A-B. In addition the compound recovery was calculated.

rat hepatocytes = test: In vitro metabolic stability in rat hepatocytes; type: in vitro ADME; conditions: 1 μM
Procedure: 6. Investigation of In Vitro Metabolic Stability in Rat Hepatocytes
Hepatocytes from Han Wistar rats were isolated via a 2-step perfusion method. After perfusion, the liver was carefully removed from the rat: the liver capsule was opened and the hepatocytes were gently shaken out into a Petri dish with ice-cold Williams medium E (purchased from Sigma Aldrich Life Science, St Louis, Mo.). The resulting cell suspension was filtered through sterile gaze in 50 ml falcon tubes and centrifuged at 50×g for 3 min at room temperature. The cell pellet was resuspended in 30 ml WME and centrifuged through a Percoll® gradient for 2 times at 100×g. The hepatocytes were washed again with Williams' medium E (WME) and resuspended in medium containing 5% Fetal calf serum (FCS, purchased from Invitrogen, Auckland, NZ). Cell viability was determined by trypan blue exclusion.
For the metabolic stability assay liver cells were distributed in WME containing 5% FCS to glass vials at a density of 1.0×10^6 vital cells/ml. The test compound was added to a final concentration of 1 μM. During incubation, the hepatocyte suspensions were continuously shaken and aliquots were taken at 2, 8, 16, 30, 45 and 90 min, to which equal volumes of cold acetonitrile were immediately added. Samples were frozen at −20° C. over night, after subsequently centrifuged for 15 minutes at 3000 rpm and the supernatant was analyzed with an Agilent 1200 HPLC-system with LCMS/MS detection.
The half-life of a test compound was determined from the concentration-time plot. From the half-life the intrinsic clearances were calculated.

[1] = In vivo pharmacokinetics in rats; conditions: male, Wistar, rat, plasma, iv, i.v. bolus dosing, read-out: t1/2: terminal half-life (converted)
Procedure: 7. In Vivo Pharmacokinetics in Rats
For in vivo pharmacokinetic experiments test compounds were administered to male Wistar rats intravenously at doses of 0.3 to 1 mg/kg formulated as solutions using either rat plasma or solubilizers such as PEG400 in well-tolerated amounts.
For pharmacokinetics after intravenous administration test compounds were given as i.v. bolus and blood samples were taken at 2 min, 8 min, 15 min, 30 min, 45 min, 1 h, 2 h, 4 h, 6 h, 8 h and 24 h after dosing. […] Blood was collected into Lithium-Heparin tubes (Monovetten®, Sarstedt) and centrifuged for 15 min at 3000 rpm. An aliquot of 100 μL from the supernatant (plasma) was taken and precipitated by addition of 400 μL ice cold acetonitrile and frozen at −20 OC over night. Samples were subsequently thawed and centrifuged at 3000 rpm, 4° C. for 20 minutes. Aliquots of the supernatants were taken for analytical testing using an Agilent 1200 HPLC-system with LCMS/MS detection. PK parameters were calculated by non-compartmental analysis using a PK calculation software.
PK parameters derived from concentration-time profiles after i.v.: CLplasma: Total plasma clearance of test compound (in L/kg/h); CLblood: Total blood clearance of test compound: CLplasma*Cp/Cb (in L/kg/h) with Cp/Cb being the ratio of concentrations in plasma and blood, AUCnorm: Area under the concentration-time curve from t=0 h to infinity (extrapolated) divided by the administered dose (in kg*h/L); t1/2: terminal half-life (in h).

Papp A→B at 2 h, 2 μM (Caco-2 permeation assay) [×10⁻⁶ cm/s] | Papp B→A at 2 h, 2 μM (Caco-2 permeation assay) [×10⁻⁶ cm/s] | efflux ratio at 2 h, 2 μM (Caco-2 permeation assay) | maximal calculated oral bioavailability (Fmax) based on stability data in rat hepatocytes (rat hepatocytes) [%] | half-life [1] [h] | SMILES
8.2 | 12.6 | 1.5 |  |  | CS(=O)(=O)N=S(C)(=O)Cc1cc2nc(c1)OCCCOc1cc(F)ccc1-c1cc(ncc1F)N2 (racemic) [Example 22, (rac)-N-[{[15,19-difluoro-3,4-dihydro-2H,11H-10,6-(azeno)-12,16-(metheno)-1,5,11,13-benzodioxadiazacyclooctadecin-8-yl]methyl}(methyl)oxido-λ^6-sulfanylidene]methanesulfonamide]
6.7 | 5.5 | 0.8 |  |  | CS(=O)(=O)Cc1cc2nc(c1)OCCCOc1cc(F)ccc1-c1cc(ncc1F)N2 [Example 8, 15,19-difluoro-8-[(methylsulfonyl)methyl]-3,4-dihydro-2H,11H-10,6-(azeno)-12,16-(metheno)-1,5,11,13-benzodioxadiazacyclooctadecine]
0.6 | 44.2 | 69.7 |  |  | CS(=O)(Cc1cc2nc(c1)OCCCOc1cc(F)ccc1-c1cc(ncc1F)N2)=NS(=O)(=O)CCN (racemic) [Example 23, (rac)-2-amino-N-[{[15,19-difluoro-3,4-dihydro-2H,11H-10,6-(azeno)-12,16-(metheno)-1,5,11,13-benzodioxadiazacyclooctadecin-8-yl]methyl}(methyl)oxido-λ^6-sulfanylidene]ethanesulfonamide]
13.9 | 19.7 | 1.4 | 69 | 2.2 | CS(=N)(=O)Cc1cc2cc(c1)OCCCCOc1cc(F)ccc1-c1nc(ncc1F)N2 (racemic) [Example 1, (rac)-16,20-Difluoro-9-[(S-methylsulfonimidoyl)methyl]-2,3,4,5-tetrahydro-12H-13,17-(azeno)-11,7-(metheno)-1,6,12,14-benzodioxadiazacyclononadecine]
1.2 | 7.6 | 6.5 |  |  | NCCS(=O)(=O)Cc1cc2nc(c1)OCCCOc1cc(F)ccc1-c1cc(ncc1F)N2 [Example 26, 2-({[15,19-difluoro-3,4-dihydro-2H,11H-10,6-(azeno)-12,16-(metheno)-1,5,11,13-benzodioxadiazacyclooctadecin-8-yl]methyl}sulfonyl)ethanamine]
 |  |  | 76 | 4.9 | CS(=N)(=O)Cc1cc2cc(c1)OCCCOc1cc(F)ccc1-c1nc(ncc1F)N2 (racemic) [Example 15, (rac)-15,19-difluoro-8-[(S-methylsulfonimidoyl)methyl]-3,4-dihydro-2H,11H-12,16-(azeno)-10,6-(metheno)-1,5,11,13-benzodioxadiazacyclooctadecine]
0.4 | 26.2 | 74.5 |  |  | CS(=O)(Cc1cc2nc(c1)OCCCOc1cc(F)ccc1-c1cc(ncc1F)N2)=NC(=O)OCCN (racemic) [Example 25, (rac)-2-aminoethyl [{[15,19-difluoro-3,4-dihydro-2H,11H-10,6-(azeno)-12,16-(metheno)-1,5,11,13-benzodioxadiazacyclooctadecin-8-yl]methyl}(methyl)oxido-λ^6-sulfanylidene]carbamate]
4.7 | 4.3 | 0.91 | 62 | 7.2 | CS(=N)(=O)Cc1cc2nc(c1)OCCCOc1cc(F)ccc1-c1cc(ncc1F)N2 (racemic) [Example 5, (rac)-15,19-Difluoro-8-[(S-methylsulfonimidoyl)methyl]-3,4-dihydro-2H,11H-10,6-(azeno)-12,16-(metheno)-1,5,11,13-benzodioxadiazacyclooctadecine]
8.7 | 8.8 | 1 |  |  | CCNC(=O)N=S(C)(=O)Cc1cc2nc(c1)OCCCOc1cc(F)ccc1-c1cc(ncc1F)N2 (racemic) [Example 17, (rac)-1-[{[15,19-difluoro-3,4-dihydro-2H,11H-10,6-(azeno)-12,16-(metheno)-1,5,11,13-benzodioxadiazacyclooctadecin-8-yl]methyl}(methyl)oxido-λ^6-sulfanylidene]-3-ethylurea]
